# What was measured:
# [1] = system: OVCAR433 cells adhesion to FN; experiment: Solid phase adhesion assay to FN, OVCAR433; assay type: cell-based; design: inhibition of adhesion to FN relative to TG53: dose or concentration left out as unconfirmed
# Method: (§1) Cells labeled with calcein AM (Life Technologies, #L3224) were seeded at a density of 4×10^4 cells in 96-well plates pre-coated with FN (5 μg/mL, Sigma, #F1141), and blocked using 1% BSA (Sigma, #A9647) in PBS in the presence of selected compounds diluted at the specified concentrations, in serum free media. After 45 minutes, unattached cells were washed using PBS containing 1 mM MgCl2(Sigma, #M8266) and adherent cells were quantified in a SpectraMaxGeminiXS fluorescence plate reader (Molecular Devices, Palo Alto, Calif.) at 530 nm wavelength. Experiments were performed inquadruplicate and repeated at least twice.
# [2] = system: SKOV3 cells adhesion to collagen-1; experiment: SKOV3 adhesion to collagen-1 coated wells; assay type: cell-based; conditions: 25 μM, collagen-1 20 μg/ml
# Method: FIG. 13. Top SMIs inhibit cell adhesion to FN. A, Effects of top compounds (25 μM) on SKOV3 cells adhesion to FN. B, Dose-dependent effects (1-25 μM) of TG53 on SKOV3 cell adhesion to FN. […] D, Effects of TG53 (25 μM) on SKOV3 cells adhesion to wells coated with collagen-1 (20 μg/ml). E, Effects of TG53 (25 μM) on SKOV3-control or AS-TG2 cells adhesion to FN. Bars represent means+/−SEM of quadruplicate measurements. * denote p<0.05.
# as §1
smiles,measurement,setting,value
Cc1cc(N(C)C)nc(Nc2ccc(NC(=O)Cc3ccccc3)cc2)n1 [MT-4],inhibition of adhesion to FN relative to TG53,[1],more active than TG53
same,"cell adhesion to FN, dose dependence",[1]; 2 μM-25 μM,dose-dependent inhibitory effect
COc1ccc(Cl)cc1C(=O)Nc1ccc(Nc2nc(C)cc(N(C)C)n2)cc1 [TG53],adhesion to collagen,[2],did not inhibit

# From patent US20210276960A1, “INHIBITORS OF TISSUE TRANSGLUTAMINASE 2 (TG2) AND USES THEREOF” (Northwestern University, priority 2020, published 2021)
